PMC10525927, “First Generation of Antioxidant Precursors for Bioisosteric Se-NSAIDs: Design, Synthesis, and In Vitro and In Vivo Anticancer Evaluation” (Antioxidants, 2023)
Read-outs that look alike come from different tables or passages of the source.

Experiments:
[1] = DPPH radical scavenging assay
Protocol: Briefly, the compounds were dissolved at a concentration of 1 mg/mL in absolute methanol, and a dilution was prepared. […] Then, 100 µL of the DPPH solution was added to 100 µL of the compounds’ solution to a final concentration of 0.03 mg/mL or 0.06 mg/mL, and the decolorization of the purple radical to the yellowish reduced form was followed by recording the absorbance at 517 nm. Ascorbic acid (Asc) and Trolox were used as positive controls. Both of them, Asc and Trolox, were purchased from Sigma-Aldrich. Determinations were recorded at eight different time intervals from 0 to 120 min on a BioTeck PowerWave XS spectrophotometer, and the data were collected using KCJunior version 1.41. software. All the measurements were carried out in triplicate. Results are expressed as the percentage of the radical scavenged, calculated using the following formula: % DPPH radical scavenging = [(Acontrol − Asample)/Acontrol] × 100, wherein Acontrol refers to the absorbance of the negative control and Asample refers to the absorbance of the tested compounds.

[2] = test system: HCT-116 colon cancer cells; experiment: MTT cell viability assay, HCT-116; format: cell-based; details: mean ± SD
Protocol: (§1) The cell lines were purchased from the American Type Culture Collection (ATCC). The cancer cell lines DU-145, PC-3, T-47D, MDA-MB-231, H1299, and A549, and the non-tumorigenic cells (184B5 and BEAS-2B), were maintained in RPMI 1640 medium (Gibco, Alcobendas, Madrid, Spain) supplemented with 10% fetal bovine serum (FBS; Gibco) and 1% antibiotics (10.00 units/mL penicillin and 10.00 mg/mL streptomycin; Gibco). Colon cancer cells HT-29 and HCT-116 were cultured in McCoy’s 5A medium (Gibco) supplemented with 10% fetal bovine serum (FBS; Gibco) and 1% antibiotics (10.00 units/mL penicillin and 10.00 mg/mL streptomycin; Gibco). Cells were maintained in tissue culture flasks at 37 °C and 5% CO2. The culture medium was replaced every three days.
(§2) The antiproliferative activity and selectivity in vitro of the Se-NSAID derivatives were determined by the (3-(4,5-dimethylthiazol-2-yl)-2,5-diphenyltetrazolium bromide) (MTT) assay. Compounds were dissolved in DMSO at a concentration of 0.01 M and serial dilutions were prepared. The Se-NSAID derivatives were tested at seven concentrations ranging between 1 and 100 µM in the colon (HT-29 and HCT-116), prostate (DU-145 and PC-3), breast (MDA-MB-231 and T-47D), and lung (H1299 and A549) cancer cell lines. The non-tumorigenic breast (184B5) and lung (BEAS-2B) cell lines were also tested to assess the selectivity of the compounds following the same procedure. A total of 1 × 10^4 cells were seeded per well in 96-well plates and incubated at 5% CO2 and 37 °C for 24 h. Then, cells were treated with either DMSO or increasing concentrations of the corresponding Se-NSAID derivatives for 48 h. A volume of 20 µL of MTT (5 mg/mL) was added to each well 2.5 h before the termination point. At the end of the experiment, the medium was removed, and the resultant formazan crystals formed by mitochondrial reduction of MTT were dissolved in 50 µL of DMSO. Absorbance was measured at 550 nm. IC50, GI50, TGI, and LC50 values were calculated using OriginPro version 8.5.1. software by nonlinear curve fitting. Selectivity indexes (SI) were calculated as the ratio of the IC50 values determined for the nonmalignant and the tumoral cells in the breast (IC50 (184B5)/IC50 (MDA-MB-231) and IC50 (184B5)/IC50 (T-47D)) and lung (IC50 (BEAS-2B)/IC50 (H1299) and IC50 (BEAS-2B)/IC50 (A549)) cell lines. Data were obtained from at least three independent experiments performed in triplicates.

[3] = test system: MDA-MB-231 breast cancer cells; experiment: MTT cell viability assay, MDA-MB-231; format: cell-based; details: mean ± SD
Protocol: as §1, §2

[4] = test system: T-47D breast cancer cells; experiment: MTT cell viability assay, T-47D; format: cell-based; details: 48 h, mean ± SD
Protocol: as §1, §2

A549 lung cancer cells = experiment: MTT cell viability assay, A549; format: cell-based; details: Homo sapiens, A549, 48 h, mean ± SD
Protocol: as §1, §2

[5] = test system: BEAS-2B non-tumorigenic lung (bronchial epithelium) cells; experiment: MTT cell viability assay, BEAS-2B; format: cell-based; details: 48 h, mean ± SD; for IC50: nonmalignant lung cells
Protocol: as §1, §2

[6] = test system: panel of eight cancer cell lines; experiment: MTT cell viability assay, statements on the whole panel; format: cell-based; details: 48 h
Protocol: as §1, §2

HCT-116 cells [7] = experiment: Annexin V & Dead Cell apoptosis assay; format: cell-based; details: HCT-116, 24 h
Protocol: (§3) The capacity of the Se-NSAID derivatives to induce apoptosis was analyzed using both a Caspase 3/7 assay kit and Annexin V & Dead Cell assay kit (EMD Millipore, Darmstadt, Germany). HCT-116 cells were seeded in 6-well plates at a density of 5 × 10^5 cells per well. Cells were treated either with DMSO (control) or with different concentrations of compound 5 and incubated for 24 h. At the end of the treatment, cells were collected and treated with the respective dyes according to the manufacturer’s protocol. For the Caspase 3/7 assay, cells were stained with 5 µL of Muse™ Caspase 3/7 working solution and incubated at 37 °C for 30 min. After incubation, […] of Muse™ Caspase 7-AAD working solution was added and the samples were incubated for another 5 min in the dark at room temperature prior to analysis. For Annexin V assay, cells were stained with 100 µL pf Muse™ Annexin V & Dead Cell Reagent and incubated for 20 min at room temperature in the dark. Samples for both assays were analyzed on a Muse™ Cell Analyzer (Merck Millipore, Darmstadt, Germany) using Muse™ version 1.4. software.

HCT-116 cells [8] = experiment: Caspase 3/7 apoptosis assay; format: cell-based; details: HCT-116, 24 h
Protocol: as §3

[9] = in vitro TGI concentration, 48 h, Table S1
[10] = in vitro TGI concentration, Table S1

CC(C)Cc1ccc(C(C)C(=O)[Se][Se]C(=O)C(C)c2ccc(CC(C)C)cc2)cc1 (stereo not shown) [Compound 5, 2-(4-Isobutylphenyl)propanoic diselenoperoxyanhydride]
DPPH radical scavenging activity ([1]; highest concentration tested (0.06 mg/mL), by the end of the experiment (120 min)): comparable to those of the positive controls
DPPH radical scavenging activity ([1]; lowest concentration tested (0.03 mg/mL)): 20%
IC50 ([2]; Homo sapiens, HCT-116, 48 h): 9 ± 3 µM
GI50 ([2]; Homo sapiens, HCT-116, 48 h, Table S1): 4.6 ± 1.5 µM
TGI HCT-116 [2, 9]: 10.3 ± 3.8 µM
IC50 ([3]; Homo sapiens, MDA-MB-231, 48 h): 8.3 ± 2.5 µM
GI50 ([3]; Homo sapiens, MDA-MB-231, 48 h, Table S1): 4.8 ± 1.1 µM
TGI MDA-MB-231 [3, 9]: 7.9 ± 3.8 µM
LD50 T-47D ([4]; Table S1): 4.2 ± 0.3 µM
IC50 ([4]; Homo sapiens, T47D): 3.8 ± 0.2 µM
GI50 ([4]; Homo sapiens, T47D, Table S1): 1.8 ± 0.4 µM
TGI T-47D [4, 10]: 2.7 ± 0.3 µM
IC50 (A549 lung cancer cells): 4.5 ± 0.6 µM
GI50 (A549 lung cancer cells; Table S1): 2.3 ± 0.2 µM
LD50 BEAS-2B ([5]; Table S1): 14.8 ± 4.7 µM
IC50 [5]: 15.9 ± 2.4 µM
GI50 ([5]; Homo sapiens, BEAS-2B, Table S1): 7.8 ± 2.3 µM
IC50 ([5]; Homo sapiens, BEAS-2B): 14 to 19 µM
TGI BEAS-2B [5, 10]: 9.8 ± 1.6 µM
GI50 ([6]; eight cancer cell lines, read-out: GI50 across all the cancer cell lines tested): < 10 µM
IC50 ([6]; eight colon, prostate, breast and lung cancer cell lines, read-out: IC50 in all the cancer cell lines tested): < 10 µM
GI50 ([6]; read-out: GI50 in at least six out of the eight cell lines): < 5 µM
Early Apop. cells (HCT-116 cells [7]; 15 μM): ~ 23%
Late Apop./Dead cells (HCT-116 cells [7]; 15 μM): ~ 13%
Live cells (HCT-116 cells [7]; 15 μM): ~ 63%
Dead cells (HCT-116 cells [7]; 25 μM): ~ 10%
Late Apop./Dead cells (HCT-116 cells [7]; 25 μM): ~ 20%
Live cells (HCT-116 cells [7]; 25 μM): ~ 60%
cells detected to be apoptotic (HCT-116 cells [7]; 25 μM): more than 30%
Dead cells (HCT-116 cells [8]; Caspase 3/7 assay, 25 μM): ~ 11%
caspase 3/7 activity (HCT-116 cells [8]; 2.5 to 25 µM, result in words): no clear enhancement
